Experimental data published in US6602512B1, “Composition for the prevention of muscle fatique and skeletal muscle adaptation of strenuous exercise” (Sigma-Tau HealthScience S.p.A., priority 1999, dated 2003).

Key:
[1] = system: mice; assay: Muscle fatigue test (swimming endurance); format: in vivo; settings: for swimming endurance time (in words): daily oral 200 mg/kg over 6 days, versus controls; for Swimming time: daily oral doses of 200 mg/kg of each compound over 6 days preceding the test
Description: The method described by Zheng (Zheng R. L., Acta Pharmacol. Sinica, 14, 47, 1993) was used for this test in order to observe whether the administration of L-carnitine or creatinol-phosphate or of the two products in combination might increase […] in treated animals as compared to controls.
In this test, different groups of mice received daily oral doses of 200 mg/kg of L-carnitine or 200 mg/kg of creatinol-phosphate or of the two compounds in combination over the 6-day period preceding the test. The animals were immersed in a tank full of water and swimming endurance time was measured.

[2] = system: gastrocnemius muscle; assay: Forced muscular exercise test (treadmill), MDA content in gastrocnemius muscle; format: in vivo; settings: rats, daily oral 200 mg/kg of each compound for 6 days; for MDA content in muscle, After 5 min: gastrocnemius muscle 5 min after end of treadmill test; for MDA content in muscle, After 30 min: gastrocnemius muscle 30 min after end of treadmill test
Source text: As is known, forced muscular exercise can produce structural and inflammatory-type lesions at muscle fibre level, due to the increased oxygen consumption and to production of reactive oxygen species (ROS). A marker of the level of ROS-induced lipid peroxidation of the muscle may be obtained from its malondialdehyde (MDA) concentration. For this test, the method described by Husain was used (Husain K., Pathophysiology, 4, 69, 1997) as modified by Li (Li J.X., Acta Pharmacologica Sinica, 20, 126, 1999) which consists essentially in examining rats on a treadmill at controlled belt speed and preset inclination. In this way the rats were made to run at a belt speed of 28 m/min and an inclination of approximately 5°. Exhaustion of the control animals subjected to the exercise occurred after approximately 90 minutes.
The test was performed on rats receiving daily oral treament over the 6-day period preceding the test with 200 mg/kg of L-carnitine or with 200 mg/kg of creatinol-phosphate or with the two compounds in combination.
Five minutes and 30 minutes, respectively, after the end of the test, the animals were sacrificed and samples of gastrocnemius muscle were taken for measurement of the malondialdehyde (MDA) content using the reaction with thiobarbituric acid according to the method described by Ohkawa (Ohkawa H. Angl. Biochem 95, 351, 1979).

Row | SMILES | swimming endurance time (in words) [1] | Swimming time [1] | MDA content in muscle, After 5 min [2] | MDA content in muscle, After 30 min [2]
1 | CN(CCOP(=O)(O)O)C(=N)N [Creatinol-phosphate, 1-(2-hydroxyethyl)-1-methylguanidine-O-phosphate] | increased swimming endurance time | 124 ± 11 min | 206 ± 16 nmol/g | 209 ± 12 nmol/g
2 | C[N+](C)(C)C[C@H](O)CC(=O)[O-] [L-carnitine] | increased swimming endurance time | 118 ± 14 min | 218 ± 11 nmol/g | 216 ± 14 nmol/g
